Data as given in PMC8428256 (Journal of medicinal chemistry, 2021).
Values belong to the compound of their own block, whether it stands above or below them.

Legend:
[1] = test system: WIL-FL F98D; conditions: Figure S5
[2] = test system: WIL-FL F98D; conditions: cited from earlier work
[3] = biological target: WIL-FL* (fluorescein-labeled WIL-FL LC dimer) (Homo sapiens, UniProt P01721, form not given/K101C); assay: Proteolysis-coupled fluorescence polarization; assay type: biochemical; conditions: for potency (EC50) increase compared to 1: WIL-FL* EC50 ratio to compound 1
WIL-FL* (fluorescein-labeled WIL-FL LC dimer) (Homo sapiens, UniProt P01721, form not given/K101C), sequence (P01721 20-117 K101C, form open): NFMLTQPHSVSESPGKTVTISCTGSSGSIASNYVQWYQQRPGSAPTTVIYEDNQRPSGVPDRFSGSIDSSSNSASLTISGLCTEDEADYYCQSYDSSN

[4] = biological target: WIL-FL* T46L/F49Y (Homo sapiens, UniProt P01721, form not given/K101C/T66L); conditions: WIL-FL T46L/F49Y EC50
WIL-FL* T46L/F49Y, sequence (P01721 20-117 T66L/K101C, form open): as the sequence (P01721 20-117 K101C, form open) above, with T47L counted along it

[5] = test system: plasma proteins; assay type: in vitro ADME, human or mouse; conditions: 2 μM in plasma, dialysis 4 h, 37 °C
[6] = test system: WIL-FL* (fluorescein-labeled WIL-FL LC dimer); assay: Proteolysis-coupled fluorescence polarization; assay type: biochemical, human; conditions: assay not given; data in Tables S2-S6 of the supplement
WIL-FL* (fluorescein-labeled WIL-FL LC dimer), sequence (P01721 20-117 K101C, form open): as the sequence (P01721 20-117 K101C, form open) above

SMILES: Cc1c(CCN2CC3(CCN(c4nccn5ccnc45)CC3)NC2=O)c(=O)oc2cc(O[C@H](C)c3ccccc3)ccc12 [(R)-83, (R)-8-(imidazo[1,2-a]pyrazin-8-yl)-3-(2-(4-methyl-2-oxo-7-(1-phenylethoxy)-2H-chromen-3-yl)ethyl)-1,3,8-triazaspiro[4.5]decan-2-one]
proteinase K resistance provided to WIL-FL F98D [1]: no appreciable proteinase K resistance

SMILES: CCN(CC)c1ccc2c(C)cc(=O)oc2c1 [Compound 1]
binding to LC with F98D mutation [2]: obviates binding

SMILES: CCN(CC)c1ccc2c(C)c(CCOC(=O)NCC3CCCNC3)c(=O)oc2c1 (centres unmarked) [Compound 18, 2-(7-(diethylamino)-4-methyl-2-oxo-2H-chromen-3-yl)ethyl (piperidin-3-ylmethyl)carbamate]
potency (EC50) increase compared to 1 [3]: ≤ 8 fold

SMILES: CCN(CC)c1ccc2c(C)c(CCOC(=O)NCc3cccnc3)c(=O)oc2c1 [Compound 20, 2-(7-(diethylamino)-4-methyl-2-oxo-2H-chromen-3-yl)ethyl (pyridin-3-ylmethyl)carbamate]
potency (EC50) increase compared to 1 [3]: ≤ 8 fold

SMILES: CCN(CC)c1ccc2c(C)c(CCOC(=O)N(C)CCc3cccnc3)c(=O)oc2c1 [Compound 22, 2-(7-(diethylamino)-4-methyl-2-oxo-2H-chromen-3-yl)ethyl methyl(2-(pyridin-3-yl)ethyl)carbamate]
reduced potency compared to the secondary carbamate 21 ([3]; WIL-FL* EC50): 70 fold

SMILES: CCN(CC)c1ccc2c(C)c(CCOC(=O)NCc3cccc(-c4c[nH]cn4)c3)c(=O)oc2c1 [Compound 26, 2-(7-(diethylamino)-4-methyl-2-oxo-2H-chromen-3-yl)ethyl (3-(1H-imidazol-4-yl)benzyl)carbamate]
potency (EC50) increase compared to 1 [3]: 42 fold

SMILES: Cc1cc(=O)oc2cc(OCC(C)c3ccccc3)ccc12 (centres unmarked) [Compound 57, 4-methyl-7-(2-phenylpropoxy)-2H-chromen-2-one]
potency increase relative to 2 [4]: 9 fold | plasma protein binding (in words) [5]: very high plasma protein binding

Other lines, results leading:

potency (EC50) increase compared to 1 [3]: ≤ 8 fold
SMILES: CCN(CC)c1ccc2c(C)c(CCOC(=O)NCCc3cccnc3)c(=O)oc2c1 [Compound 21, 2-(7-(diethylamino)-4-methyl-2-oxo-2H-chromen-3-yl)ethyl (2-(pyridin-3-yl)ethyl)carbamate]

potency (EC50) increase compared to 1 [3]: up to 22 fold
SMILES: CCN(CC)c1ccc2c(C)c(CCOC(=O)NCc3cccc(NC(C)=O)c3)c(=O)oc2c1 [Compound 23, 2-(7-(diethylamino)-4-methyl-2-oxo-2H-chromen-3-yl)ethyl (3-acetamidobenzyl)carbamate]

potency (EC50) increase compared to 1 [3]: up to 22 fold
SMILES: CCN(CC)c1ccc2c(C)c(CCOC(=O)NCc3cccc(C(N)=O)c3)c(=O)oc2c1 [Compound 25, 2-(7-(diethylamino)-4-methyl-2-oxo-2H-chromen-3-yl)ethyl (3-carbamoylbenzyl)carbamate]

proteinase K resistance provided to WIL-FL F98D [1]: no appreciable proteinase K resistance
SMILES: CCN(CC)c1ccc2c(C)c(CCOC(=O)NCc3cccc(-c4ccc[nH]c4=O)c3)c(=O)oc2c1 [Compound 27, 2-(7-(diethylamino)-4-methyl-2-oxo-2H-chromen-3-yl)ethyl (3-(2-oxo-1,2-dihydropyridin-3-yl)benzyl)carbamate]

stabilizer potency (qualitative statement in text) [6]: slightly increased their potency
SMILES: Cc1c(CN2CCOCC2)c(=O)oc2cc(OC(C)c3ccccc3)ccc12 (centres unmarked) [Compound 62, 4-methyl-3-(morpholinomethyl)-7-(1-phenylethoxy)-2H-chromen-2-one]

stabilizer potency (qualitative statement in text) [6]: slightly increased their potency
SMILES: Cc1c(CN2CCOCC2)c(=O)oc2cc(OCC(C)c3ccccc3)ccc12 (centres unmarked) [Compound 63, 4-methyl-3-(morpholinomethyl)-7-(2-phenylpropoxy)-2H-chromen-2-one]
